According to patent US4929741A, “Propiolophenone derivatives” (Hoffman-La Roche Inc., priority 1987, dated 1990):
Like-named read-outs stand apart in the source and are kept apart here.

Experiments:
[1] = Acute toxicity, single oral administration; conditions: mouse, in vivo, read-out: Toxicity LD 50
gastric acid secretion = test: Gastric acid secretion-inhibiting activity (pylorus ligation, Shay et al.); format: in vivo; conditions: Rattus norvegicus; male pylorus-ligated rats, intraduodenal, 5 h; 50% decrease of the secretion; read-out: Gastric acid secretion-inhibition, ID 50
Method: The test procedure described hereinafter was used to determine the gastric acid secretion-inhibiting activity:
The pylorus of male rats is ligated under slight ether narcosis in accordance with Shay et al., Gastroenterology 5. 43 (1945). The substances to be tested, suspended in 0.5% carboxymethylcellulose, are administered intraduodenally. Control animals are treated only with the vehicle. Five hours after the ligation the animals are killed, the volume and acidity of their gastric juice are determined and the values obtained are compared with those of control animals. The ID50 is that dosage of a test substance which brings about a 50% decrease of the secretion in comparison to the control animals. In the following Table there are given for a series of representative compounds of formula I and for two compounds of formula II the results of the testing with respect to their mucosa-protective activity ("ethanol test") and to their gastric acid secretion-inhibiting activity. Moreover, this Table contains data concerning the acute toxicity (LD50 in the case of single oral administration to mice).

[2] = tested on: lesions of the mucous membrane of the stomach; test: Ethanol test (mucosa-protective activity); format: in vivo; conditions: Rattus norvegicus; male rats, oral 30 min before absolute ethanol; dosage reducing number of lesions by 50%; read-out: Ethanol Test ID 50
Method: The experimental procedure described hereinafter was used to determine the mucosa-protective property:
The oral administration of absolute ethanol to male rats in a dosage of 1 ml per rat leads within 1 hour to bloody lesions of the mucous membrane of the stomach. Various dosages of the substances to be tested (suspended in 0.125% carboxymethycellulose) or of the vehicle alone (control) are administered to the rats orally (1 ml per rat) 30 minutes prior to the treatment with ethanol. One hour after the administration of the ethanol the animals are killed, their stomachs are investigated for the presence of lesions and the number and the total dimension of such lesions are determined. The ID50 is that dosage of a test substance which reduces by 50% the number of lesions in comparison to the control group. […]

[3] = single oral administration to mice

Row | SMILES | LD50 [1, 3] [mg/kg] | ED50 (gastric acid secretion) [mg/kg] | ED50 [2] [mg/kg] | LD50 ([1]; po) [mg/kg]
1 | COC(=O)C#CC(=O)c1cc(OC)c(OC)c(OC)c1 [N, methyl 3-(3,4,5-trimethoxybenzoyl)propiolate] | > 5000 | > 100 | 4.2 | –
2 | CCOC(C)OCC#CC(=O)c1ccc(OC)c(OC)c1OC (stereo not shown) [W, 4-(1-ethoxyethoxy)-1-(2,3,4-trimethoxyphenyl)-2-butyn-1-one] | 312 to 625 | 9 | 0.8 | –
3 | CSc1ccc(C(=O)C#CCO)cc1 [Y, 4 hydroxy-1-[4-(methylthio)phenyl]-2-butyn-1-one] | 156 to 312 | 2.7 | 1 | –
4 | COCCOCCOC(=O)C#CC(O)c1cc(OC)c(OC)c(OC)c1 (stereo not shown) [Bb, 2-(2-methoxyethoxy)ethyl 4-hydroxy-4-(3,4,5-trimethoxyphenyl)-2-butynoate] | 625 to 1250 | – | 4 | –
5 | O=C(C#CCO)c1ccc2c(c1)OCO2 [U] | – | – | 1.1 | 80 to 156
6 | COC(=O)C#CC(=O)c1ccc(O)cc1 [E, methyl 3-(4-hydroxybenzoyl)propiolate] | 312 to 625 | – | 1.2 | –
7 | COC(=O)C#CC(=O)c1ccc(OC)c(OC)c1OC [D, methyl 3-(2,3,4-trimethoxybenzoyl)propiolate] | 625 to 1250 | – | 2.1 | –
8 | COCCOCCOC(=O)C#CC(=O)c1ccc2c(c1)OCO2 [J, 2-(2-methoxyethoxy)ethyl 3-[3,4-(methylenedioxy)-benzoyl]propiolate] | 1250 to 2500 | > 100 | 2.3 | –
9 | COCCOCCOC(=O)C#CC(=O)c1ccc(OC)cc1 [G, 2-(2-methoxyethoxy)ethyl 3-(4-methoxybenzoyl)propiolate] | 1000 to 2000 | – | 2.1 | –
10 | O=C(C#CCO)c1ccc(F)cc1 [P, 1-(4-fluorophenyl)-4-hydroxy-2-butyn-1-one] | 80 to 156 | – | 0.9 | –
11 | COc1cc(C(=O)C#CC(=O)O)cc(OC)c1OC [L, 3-(3,4,5-trimethoxybenzoyl)-propiolic acid] | 1000 to 2000 | 56 | 4.1 | –
12 | O=C(O)C#CC(=O)c1ccc2c(c1)OCO2 [A, 3-[3,4-(Methylenedioxy)benzoyl]propiolic acid] | 625 to 1250 | 42 | 1.2 | –
13 | O=C(C#CCO)c1ccc(Cl)cc1 [S, 1-(4-chlorophenyl)-4-hydroxy-2-butyn-1-one] | 80 to 156 | – | 1.2 | –
14 | COc1ccc(C(=O)C#CC(=O)O)cc1 [C, 3-(4-methoxybenzoyl)propiolic acid] | 625 to 1250 | – | 1.4 | –
15 | COc1cc(C(=O)C#CC(=O)N(C)C)cc(OC)c1OC [O, N,N-dimethyl-3-(3,4,5-trimethoxybenzoyl)propiolamide] | 312 to 625 | 28 | 2.8 | –
16 | COc1ccc(OC)c(C(=O)C#CC(=O)O)c1 [I, 3-(2,5-dimethoxybenzoyl)propiolic acid] | 625 to 1250 | – | 1.9 | –
17 | COCCOCCOC(=O)C#CC(=O)c1cc(OC)c(OC)c(OC)c1 [F, 2-(2-methoxyethoxy)ethyl 3-(3,4,5-trimethoxybenzoyl)propiolate] | > 5000 | – | 2.9 | –
18 | Cc1ccc(C(=O)C#CCO)cc1 [Q, 4-hydroxy-1-(4-methylphenyl)-2-butyn-1-one] | 80 to 156 | – | 1.5 | –
19 | COC(=O)C#CC(O)c1ccc2c(c1)OCO2 (stereo not shown) [Aa, methyl 4-hydroxy-4-[3,4-(methylenedioxy)phenyl]-2-butynoate] | 312 to 625 | – | 1.4 | –
20 | COC(=O)C#CC(=O)c1ccc(F)cc1 [M, methyl 3-(4-fluorobenzoyl)propiolate] | 1250 to 2500 | – | 4.2 | –
21 | COc1cc(C(=O)C#CCO)cc(OC)c1OC [B, 4-hydroxy-1-(3,4,5-trimethoxyphenyl)-2-butyn-1-one] | 156 to 312 | 18 | 1.9 | –
22 | COC(=O)C#CC(=O)c1cc(OC)ccc1OC [H, methyl 3-(2,5-dimethoxybenzoyl)propiolate] | > 5000 | – | 2.2 | –
23 | COc1cc(C(=O)C#CC(C)O)cc(OC)c1OC (stereo not shown) [V, 4-hydroxy-1-(3,4,5-trimethoxyphenyl)-2-pentyn-1-one] | 156 to 312 | 3.1 | 1.2 | –
24 | COc1ccc(C(=O)C#CCO)cc1 [T, 4-hydroxy-1-(4-methoxyphenyl)-2-butyn-1-one] | 40 to 80 | – | 1.2 | –
25 | CCOC(C)OCC#CC(=O)c1ccc(F)cc1 (stereo not shown) [R, 4-(1-ethoxyethoxy)-1-(4-fluorophenyl)-2-butyn-1-one] | 80 to 156 | – | 1.4 | –
26 | COc1ccc(C(=O)C#CCO)c(OC)c1OC [X, 4-hydroxy-1-(2,3,4-trimethoxyphenyl)-2-butyn-1-one] | 156 to 312 | 4 | 0.8 | –
27 | COc1ccc(C(=O)C#CC(=O)O)c(OC)c1OC [K, 3-(2,3,4-trimethoxybenzoyl)-propiolic acid] | 500 to 1000 | – | 3.4 | –
